Measurements reported in patent US20040152666A1, “Methods of reducing complications associated with peritoneal dialysis in patients with diabetes obesity and/or hyperlipidemia” (priority 2002, published 2004).

Legend:
[1] = system: human peritoneal mesothelial cells; conditions: in vitro, culture medium supplemented with NAG, within six hours (ref. 12); cited from earlier work
rats = test: Acute peritoneal dialysis in rats with NAG-based or glucose-based dialysis fluid; type: in vivo, rat
Experimental: Peritoneal transport kinetics as well as blood insulin and glucose levels were evaluated in rats during acute peritoneal dialysis. Peritoneal dialysis fluids tested in the studies described herein were prepared in the laboratory and sterilized by filtration. Electrolyte and buffer compositions of both solutions were identical, similar to those contained in commercially available fluids. Concentrations of the individual solutes were as follows (mmol/l): Na 132, Ca 1.75, Mg 0.75, Cl 102, lactate 35. Glucose or NAG were used as osmotic solutes, both in a concentration of 220 mmol/l. Osmolality of the glucose-based dialysis fluid was 478 mOsm/kg H20 and of the solution containing NAG 476 mOsm/kg H2O; pH of the studied fluids was 7.02 and 7.03, respectively.
Acute peritoneal dialysis was performed in male Wistar rats (b.w.270-330 g) according to the methods described previously (see ref. 10 below). For 24 hours prior to the experiments, animals were given only drinking water and no food. At the beginning of the study, under ether anesthesia, blood samples were collected from the tail vein and thereafter 20 ml of the dialysis fluid was infused via a polyvinyl catheter (1.2 gauge; Vygon, Helsingborg, Sweden); the catheter was instantly removed after infusion. Thereafter the rats were transferred to individual cages, signs of anesthesia disappeared within 5 minutes. Dialysis fluid dwelled in the peritoneal cavity for 1 hour, 3 hours or 6 hours. 12 animals were studied at each time interval: 6 in the NAG group and 6 in the glucose group. During the dialysis animals were conscious with free access to drinking water but no food. At the end of the dwell time rats were again anesthetized with ether, blood samples were collected from the heart and then animals were sacrificed by exsanguination from heart. Afterwards the peritoneal cavity was opened and the dialysate was collected with a pipette. Dialysate volume was measured by weight. Blood and dialysate samples were centrifuged (1500 rpm for 10 minutes) and serum or dialysate supernatant were stored at −20° C. for further analysis. In dialysate samples drained after 6 hrs dwell cell count was determined in a Neubauer chamber.
Serum and dialysate samples were analyzed for creatinine (enzymatic test, Analco, Warsaw) and total protein were analyzed using Lowry method (11). Sodium concentration in the unused dialysis fluid and dialysate was measured with flame photometry (Eppendorf, Germany). Glucose concentration in serum was measured with an enzymatic test (Sigma Chemical, St.Louis, Mo., U.S.A.). Insulin concentration in serum was measured with ELISA kit (Mercodia, Uppsala, Sweden). Hyaluronan concentration in the dialysate samples was measured with ELISA (Chugai, Japan). Sodium sieving and permeability coefficient for creatinine were calculated for exchanges with 1 hour dwell. Results are presented as mean±SD. Statistical analysis was performed with Mann-Whitney test for unpaired data. A p value less than 0.05 was considered significant.

[2] = intraperitoneal infusion of radiolabeled NAG (ref. 19); cited from earlier work

Which results are given for `CC(=O)N[C@H]1C(O)O[C@H](CO)[C@@H](O)[C@@H]1O` (stereo partly shown) [NAG, N-acetylglucosamine]?
synthesis of hyaluronan [1]: increase within six hours synthesis of hyaluronan; dialysate cell count (intraperitoneal inflammation) (rats; rat, in vivo, ip): 945±251 cells/μl; dialysate volume compared with glucose-based solution (rats; rats, 1 and 3 hrs exchange): higher; sodium sieving (D/D0) (rats; rats, 1 hour exchange, mean±SD): 0.955±0.034; increase of blood insulin level after 3 hours dialysis (rats; rats, 3 hours dialysis, mean±SD): 4.5 ± 4.7 pmol/L; end dialysate volume (rats; rats, 6 hour dwell, osmotic solute 220 mmol/l, 20 ml infused, mean±SD): 34.5 ± 1.7 mL; peritoneal permeability to total protein, dialysate/serum ratio×1000 (D/S×1000) (rats; rats, 6 hrs dwell, osmotic solute 220 mmol/l, mean±SD): 9.7±2.5; increase of blood glucose level (rats; rats, after 1 hour dwell of NAG dialysis fluid): 39%; increase in blood insulin level, times weaker than with dialysis fluid containing glucose (rats; rats, after 3 hours dialysis): about 12 times; increase of blood glucose level (rats; rats, after 3 hours dwell of NAG dialysis fluid): 54%; increase of blood glucose level (rats; rats, after 6 hours dwell of NAG dialysis fluid): 116%; hyaluronan concentration in the dialysate (rats; rats, dialysate after 6 hrs dwell, mean±SD): 60.3 ± 7.8 ng/mL; blood glucose concentration, highest observed during dialysis (rats; rats, osmotic solute 220 mmol/l, dwell 1, 3 or 6 hours, mean±SD): 91 ± 9 mg/dL; increase of blood insulin level (maximal) during dialysis (rats; rats, osmotic solute 220 mmol/l, mean±SD): 5.0 ± 5.4 pmol/L; appearance of the tracer in the exhaled air [2]: about 25%; appearance of the tracer in urine [2]: about 20%
